{"source": "paper PMC12494831", "about": "“Discovery of new pyridine 3-carboxylic acid-based pharmacophores as dual anti-inflammatory and anti-hyperglycemic agents” (Scientific Reports, 2025)", "key": {"[1]": {"assay": "ABTS cation radical scavenging (734 nm)", "conditions": "for IC50: read-out: ABTS IC50±SD", "experimental": "(§1) The experimental method principle relies on the degradation of the purple color of the DPPH radical and the blue color reduction of the ABTS cation radical. This is due to consuming the electron or hydrogen radical from the antioxidant (A-H). Both assays were measured at 517 nm and 734 nm, respectively. The distinction of color changes illustrates the potential scavenging activity of the inhibitor molecules in terms of hydrogen-donating proficiency. From this, we can conclude the anti-oxidant efficacy.\nIn brief, 7.0 mM ABTS in H2O and 2.5 mM potassium persulfate (1:1) were shaken well to generate ABTS cation radicals and kept in the dark at RT for 15–20 h before it is used for the experiment. After, the radical was mixed with the synthesized molecules at different concentrations (20 µM to 100 µM). The resultant solution was measured for absorbance at 734 nm. Ascorbic acid is the positive control for this experiment.1 [drawing 1]"}, "[2]": {"assay": "DPPH radical scavenging (517 nm)", "conditions": "for IC50: read-out: DPPH IC50±SD", "experimental": "as §1\nMethanolic DPPH solution (0.15 mM) was prepared, and 1.0 mL of DPPH solution was mixed with 3.0 mL of synthesized molecules at different concentrations (20 µM to 100 µM). The mixture was constantly swirled and stored RT for 30 min, followed by absorbance measurement at 517 nm."}, "human RBC": {"test_system": "human RBC", "assay": "Anti-inflammatory activity: hypotonic solution-induced human RBC hemolysis (560 nm)", "type": "cell-based", "conditions": "for IC50: induced human RBC hemolysis, read-out: Inflammatory IC50±SD", "experimental": "All synthesized compounds are validated in human RBC (blood sample); the blood sample was collected from a healthy volunteer in an EDTA tube. The EDTA tube further proceeded with centrifugation at 3000 rpm for 30 min. A supernatant (which contains plasma and leucocytes) solution was isolated, and the obtained RBC (red blood cells) was further treated with Alsever’s reagent. Alsever’s reagent was prepared as follows: sodium citrate (0.8 g, 2.6 mmol), dextrose (2 g, 11.0 mmol), citric acid (0.050 g, […]), and sodium chloride (0.42 g, 7.0 mmol) were solubilized in 100 mL of distilled water. The above mixture was centrifuged for 30 min at 3000 rpm. Then, colloidal blood cells were separated, carefully transferred, and washed with 0.85% of the isosaline solution; this process continued until a clear solution appeared. Employing coagulated RBC and generated human erythrocyte hemolysis, the anti-inflammatory activity and potential of the synthesized entities were evaluated. The tested compounds are prepared at different concentrations for the inhibition activity of inflammation, along with 100 µL of a purified RBC sample utilized. All characterized samples were followed by adding 5.0 mL of trisodium phosphate (10 mM) and 5.0 mL of sodium chloride (5.0 mM) buffer solutions. After the addition of the above mixtures, the test samples are incubated for 15 min at room temperature with RBC and hypotonic mixtures. After incubation, the mixture was centrifuged at 3000 rpm for 15 min. The final supernatant liquid solution was measured at 560 nm using a UV-visible spectrophotometer.3 [drawing 3]"}}, "data": [{"smiles": "O=C1O[C@H]([C@@H](O)CO)C(O)=C1O", "note": "[Ascorbic acid, reference compound]", "values": [{"measurement": "ABTS Inhibition %", "setting": "[1]; 20 µM", "result": 90, "unit": "%"}, {"measurement": "ABTS Inhibition %", "setting": "[1]; 40 µM", "result": 93, "unit": "%"}, {"measurement": "ABTS Inhibition %", "setting": "[1]; 60 µM", "result": 95, "unit": "%"}, {"measurement": "ABTS Inhibition %", "setting": "[1]; 80 µM", "result": 96, "unit": "%"}, {"measurement": "ABTS Inhibition %", "setting": "[1]; 100 µM", "result": 96.5, "unit": "%"}, {"measurement": "IC50", "setting": "[1]", "result": "11.9 ± 0.01", "unit": "µM"}, {"measurement": "DPPH Inhibition %", "setting": "[2]; 20 µM", "result": 91, "unit": "%"}, {"measurement": "DPPH Inhibition %", "setting": "[2]; 40 µM", "result": 91.8, "unit": "%"}, {"measurement": "DPPH Inhibition %", "setting": "[2]; 60 µM", "result": 93.7, "unit": "%"}, {"measurement": "DPPH Inhibition %", "setting": "[2]; 80 µM", "result": 94.3, "unit": "%"}, {"measurement": "DPPH Inhibition %", "setting": "[2]; 100 µM", "result": 96.1, "unit": "%"}, {"measurement": "IC50", "setting": "[2]", "result": "11.81 ± 0.04", "unit": "µM"}]}, {"smiles": "COC(=O)C=Cc1cc(OC)c(OC(=O)c2cccnc2)c(OC)c1", "note": "[Compound 2d, 2,6-dimethoxy-4-(3-methoxy-3-oxoprop-1-en-1-yl)phenyl nicotinate]", "values": [{"measurement": "inhibition at 20 µM", "setting": "human RBC", "result": 59, "unit": "%"}, {"measurement": "inhibition at 40 µM", "setting": "human RBC", "result": 62, "unit": "%"}, {"measurement": "inhibition at 60 µM", "setting": "human RBC", "result": 65.4, "unit": "%"}, {"measurement": "inhibition at 80 µM", "setting": "human RBC", "result": 75.2, "unit": "%"}, {"measurement": "inhibition at 100 µM", "setting": "human RBC", "result": 84.4, "unit": "%"}, {"measurement": "IC50", "setting": "human RBC", "result": "20.2 ± 0.26", "unit": "µM"}, {"measurement": "ABTS Inhibition %", "setting": "[1]; 20 µM", "result": 56.9, "unit": "%"}, {"measurement": "ABTS Inhibition %", "setting": "[1]; 40 µM", "result": 59.6, "unit": "%"}, {"measurement": "ABTS Inhibition %", "setting": "[1]; 60 µM", "result": 62.5, "unit": "%"}, {"measurement": "ABTS Inhibition %", "setting": "[1]; 80 µM", "result": 62.6, "unit": "%"}, {"measurement": "ABTS Inhibition %", "setting": "[1]; 100 µM", "result": 63.2, "unit": "%"}, {"measurement": "IC50", "setting": "[1]", "result": "21.57 ± 0.11", "unit": "µM"}, {"measurement": "DPPH Inhibition %", "setting": "[2]; 20 µM", "result": 36.2, "unit": "%"}, {"measurement": "DPPH Inhibition %", "setting": "[2]; 40 µM", "result": 56.3, "unit": "%"}, {"measurement": "DPPH Inhibition %", "setting": "[2]; 60 µM", "result": 80.5, "unit": "%"}, {"measurement": "DPPH Inhibition %", "setting": "[2]; 80 µM", "result": 87.4, "unit": "%"}, {"measurement": "DPPH Inhibition %", "setting": "[2]; 100 µM", "result": 88.3, "unit": "%"}, {"measurement": "IC50", "setting": "[2]", "result": "32.02 ± 0.26", "unit": "µM"}]}, {"smiles": "O=C(c1ccccc1)c1ccc2n1CCC2C(=O)O", "note": "(stereo not drawn) [Ketorolac, reference compound]", "values": [{"measurement": "inhibition at 20 µM", "setting": "human RBC", "result": 91, "unit": "%"}, {"measurement": "inhibition at 40 µM", "setting": "human RBC", "result": 92, "unit": "%"}, {"measurement": "inhibition at 60 µM", "setting": "human RBC", "result": 93, "unit": "%"}, {"measurement": "inhibition at 80 µM", "setting": "human RBC", "result": 93.5, "unit": "%"}, {"measurement": "inhibition at 100 µM", "setting": "human RBC", "result": 94, "unit": "%"}, {"measurement": "IC50", "setting": "human RBC", "result": "11.8 ± 0.17", "unit": "µM"}]}]}
